Measurements from PMC5069167 (Nature chemical biology, 2016).

Biological target: T1, PolD (Streptomyces asoensis, UniProt C1IC31)
T1 sequence (C1IC31 1-215): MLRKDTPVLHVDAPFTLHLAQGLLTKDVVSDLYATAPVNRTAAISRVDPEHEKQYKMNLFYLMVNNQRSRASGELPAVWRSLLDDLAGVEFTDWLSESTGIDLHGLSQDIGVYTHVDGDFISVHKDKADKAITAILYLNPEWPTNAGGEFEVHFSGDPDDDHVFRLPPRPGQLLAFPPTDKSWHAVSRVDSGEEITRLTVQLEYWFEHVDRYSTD
Test: binding and oxidation of alpha-KG, succinate detection by HR-MS
Format: biochemical
Conditions: Fe(II), ascorbate 5 mM, O2, pH 7.6, 25 °C

SMILES: O=C(O)CCC(=O)C(=O)O [α-KG]
- binding and oxidation of alpha-KG, succinate detection by HR-MS: non-heme mono-iron center capable of binding and oxidizing α-KG
